This is an account of results in EP2729445B1, “CYCLIC AMINE DERIVATIVES AS EP4 RECEPTOR ANTAGONISTS” (Rottapharm Biotech S.r.l., priority 2011, dated 2013).

Read-outs that look alike come from different tables or passages of the source.

In data set [1] the target is T1, hEP4 receptors (Homo sapiens, UniProt P35408).
T1 construct: membrane fraction used
Kind of data set: [3H]-Prostaglandin E2 membrane binding assay. The procedure:
(§1) The cDNA clone of human EP4 receptor (NM_000958.2) was obtained from InvitrogenTM: Ultimate™ ORF Clone Collection - Clone ID IOH46525. The coding sequence was subcloned in expression vector pcDNATM6.2/V5-DEST by Gateway technology (InvitrogenTM). Human embryonic kidney cells (HEK-293) were stably transfected with expression vector for human EP4 receptor in according to the method described in FuGENE®6 Transfection Reagent's manual (Roche Applied Science®).
(§2) The EP4 transfected cells were grown in Dulbecco's modified Eagle's medium containing 10% fetal bovine serum and 10 µg/ml Blasticidin S HCl (selection medium) at 37°C in a humidified atmosphere of 5% CO2 in air. For the membrane preparation, cells in flask were harvested by hypotonical/mechanical lysis with chilled (4°C) TE buffer (5mM TRIS, 5mM ethylenediamine tetra-acetic acid (EDTA), pH 7.4). Cells were detached and lysed with 10ml of hypotonic lysis buffer and by scraping. The cell lysate was vortexed for 30 sec and centrifuged at 40000x g at 4°C for 22min.
The membrane pellet was resuspended in the same buffer (5mM TRIS, 5mM ethylenediamine tetra-acetic acid (EDTA), pH 7.4), and protein concentration was determined by Bradford method (Bio-Bad® assay). This membrane preparation was stored at -80°C freezer until use for binding assay. ([^3H]-PGE2) membranes binding assays toward hEP4 receptors (human EP4/HEK293 transfectant, see above) and hEP2 receptors (human EP2/HEK293 transfectant, purchased from PerkinElmer Inc) were performed in 10 mM MES-KOH buffer pH6, containing 10 mM MgCl2 and 1 mM CaCl2 for EP4 binding assay or 50 mM Tris-Cl, BSA 0.5% for EP2 binding assay (according to supplier indication) . Ten microgram of protein from membrane fractions were incubated in a total volume of 0.1ml (EP4) or 0.2ml (EP2) with 1nM (EP4) or 3nM (EP2) [^3H]-PGE2 (PerkinElmer Inc, 171Ci/mmol). In both assays to determine the total binding or non specific binding, 1% DMSO or 1µM prostaglandin E2 (EP4) or 100 µM (EP2) were added to reaction mixtures, respectively. Incubation was conducted in a polypropylene 96 multiwell for 90 min (EP4) or 60 min (EP2) at room temperature prior to separation of the bound and free radioligand by vacuum manifold rapid filtration on glass fiber filters (Unifilter GFB96, PerkinElmer Inc) pre-soaked in 0.3% polyethyleneimine. Filters were washed with ice cold buffer pH 7.4 (50mM HEPES, NaCl 500mM, BSA 0.1% for EP4 binding assay or 50mM Tris-Cl for EP2 binding assays) and the residual [^3H]-PGE2 binding determined by solid scintillation counter (TopCount , PerkinElmer Inc).
The affinity (Ki) of each compound was calculated according to the Cheng-Prousoff equation: Ki = IC50/(1+([C]/Kd)). Results were expressed as pKi (- log10 Ki (M)

Data set [2] deals with T1, hEP4 receptors. Put plainly: cAMP assay (AlphaScreen) on human EP4 membrane of transfected cells, antagonism of PGE2. It is filed as biochemical. Particulars: HEK293 cell membrane stimulated with PGE2 3nM; read-out: functional IC50. The procedure: as §1, §2
The assay is based on the competition between endogenous cAMP and exogenously added biotinylated cAMP. The capture of cAMP is achieved by using a specific antibody conjugated to Donor beads. Cell membranes prepared as described above, were resuspended in 1 ml stimulation buffer (HBSS 1X + BSA 0.1% + IBMX 0.5mM + HEPES 5mM + MgCl2 10mM + GTP 1 nM + GDP 10µM + ATP 100µM - pH 7.4). Cell membranes were dispensed into white 384-well microplates at final concentration of 1µg/well and used for the determination of cAMP with the alphascreen cAMP functional assay (EnVision - PerkinElmer). Cell membrane/anti-cAMP Acceptor beads mix (5 µl) and a mixture of analysed compounds (dissolved in 100% DMSO to a final maximal concentration of 0.01% DMSO)/PGE2 (5 µl) were incubated at room temperature (22-23°C) for 30 min in the dark. The Biotinylated-cAMP and donor beads (15 µl) were dispensed into each well to start the competition reaction. After 1 h incubation RT (22-23°C) in the dark the plate was read using EnVision platform to determine the cAMP level (excitation: 680nm; emission:520,620nm). In each experiment:
cAMP standard curve (concentration range from 1x10-6 to 1x10-11 M in log intervals) with a negative control (no cAMP)
a positive control: forskolin 10µM
Antagonism studies were performed stimulating HEK293 cell membrane with PGE2 3nM. The AlphaScreen signal is plotted as a function of log concentration of cAMP and functional IC50 is determined. IC50 value is calculated by linear regression.
In general terms: Cyclic AMP is a second messenger, typically raised through Gs and lowered through Gi signalling.

Data set [3] can be described thus: Pharmacokinetics after intravenous and oral treatment, plasma LC-MS/MS. It counts as in vivo, male Han Wistar rats. Particulars: rat, 5 mg/kg; for AUC(0-inf): extrapolated to infinity. On the procedure: The pharmacokinetics of compounds E7, E17 and E18, were studied in male Han Wistar rats. The rats were treated intravenously and orally (n=3 for each dose route) with compounds formulated as solutions. The rats were fitted with a jugular cannula for serial sampling. A full profile was acquired from each rat. Plasma extracts were quantitatively analyzed using a specific and sensitive LC-MS/MS bioanalytical method. Inter-individual variations between the three rats in each group were limited (CV for pharmacokinetic parameters was below 50%). […] A range of clearance values were obtained for the different structure, ranging from low to moderate values (from 43 to 250 ml/h). After oral administration, absorption was quite fast with a clear maximum concentration reached by the first sampling time-point of 15 minutes for all compounds.

Setting [4] is: read-out: Binding pKi (converted).
Setting [5] is: human EP4/HEK293 transfectant membranes, 1nM [3H]-PGE2, Ki from IC50 by Cheng-Prousoff, pKi = -log10 Ki (M).

T1 sequence (P35408 whole entry): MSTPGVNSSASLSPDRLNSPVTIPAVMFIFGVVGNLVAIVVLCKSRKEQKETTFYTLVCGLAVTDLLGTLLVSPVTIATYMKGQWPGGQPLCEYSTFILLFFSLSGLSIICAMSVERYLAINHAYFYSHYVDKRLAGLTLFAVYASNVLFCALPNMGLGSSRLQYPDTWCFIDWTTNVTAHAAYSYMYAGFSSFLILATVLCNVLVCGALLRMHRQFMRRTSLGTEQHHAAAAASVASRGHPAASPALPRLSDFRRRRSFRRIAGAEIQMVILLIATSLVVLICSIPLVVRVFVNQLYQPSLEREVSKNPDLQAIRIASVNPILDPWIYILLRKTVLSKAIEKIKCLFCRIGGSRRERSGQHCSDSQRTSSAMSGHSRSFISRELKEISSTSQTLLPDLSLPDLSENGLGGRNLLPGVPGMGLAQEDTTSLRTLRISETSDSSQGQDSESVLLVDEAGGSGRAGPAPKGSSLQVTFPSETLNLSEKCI

Broadly, the IC50 is the concentration that gives 50% inhibition. The term AUC(0-t) denotes exposure summed from dosing to a finite time, without extrapolation to infinity. Read a low AUC(0-t) as low exposure. A word on the AUC(0-inf): it is total exposure, with the tail of the curve extrapolated. For orientation: half-life means the time needed for the level to fall by half in the phase considered. For orientation: Cmax means the peak of the concentration-time curve. As a reminder, the Tmax is the time at which the peak concentration occurs. Broadly, the bioavailability is dose-corrected exposure relative to a reference, in per cent. Higher therefore signals good availability. `O=C(O)c1ccc(C2(NC(=O)C3CC4(CCN3Cc3ccc(C(F)(F)F)cc3)CC4)CC2)cc1` (single isomer, unassigned) [Example E7, 4-(1-(6-(4-(trifluoromethyl)benzyl)-6-azaspiro[2.5]octane-5-carboxamido)cyclopropyl)benzoic acid]: the Ki at hEP4 receptors [1] (setting [4]) is 3.16e-08 M. The IC50 at hEP4 receptors [2] is 22 nM. Also, in data set [3] (male, Han Wistar, plasma, iv), the AUC(0-t) was 29200 ng·h/mL and the AUC(0-inf) was 31800 ng·h/mL. Further, the half-life in data set [3] (male, Han Wistar, plasma, iv, extrapolated, indicative only) was 7.4 h. Also, the clearance in data set [3] (male, Han Wistar, plasma, iv, extrapolated, indicative only, read-out: CLp* (converted)) was 0.717 mL/min. In addition, the Vd in data set [3] (male, Han Wistar, plasma, iv, extrapolated, indicative only, read-out: Vss*) is 0.395 L. Also, in data set [3] (male, Han Wistar, plasma, po), the AUC(0-t) came out at 22900 ng·h/mL, the Cmax amounted to 5330 ng/mL, the Tmax came out at 0.5 h and the AUC(0-inf) is 24900 ng·h/mL. Besides, the bioavailability in data set [3] (male, Han Wistar, plasma, po, absolute oral bioavailability) was 78%. For the same compound, the half-life in data set [3] (male, Han Wistar, plasma, po, extrapolated, indicative only) was 6.7 h. Besides, in data set [3] (iv), the “Tlast” value came out at 24 h. Besides, in data set [3] (po), the “Tlast” value stood at 24 h.
Compound `O=C(O)c1ccc(C2(NC(=O)C3CC4(CCN3Cc3cccc(C(F)(F)F)c3)CC4)CC2)cc1` (single isomer, unassigned) [Example E9, 4-(1-(6-(3-(trifluoromethyl)benzyl)-6-azaspiro[2.5]octane-5-carboxamido)cyclopropyl)benzoic acid] showed a Ki at hEP4 receptors [1] (setting [5]) of 6.31e-09 M. At hEP4 receptors [2], the IC50 amounted to 4 nM.
As to `C[C@H](NC(=O)C1CC2(CCN1Cc1ccc(C(F)(F)F)cc1)CC2)c1ccc(C(=O)O)cc1` (single isomer, unassigned) [Example E10], on hEP4 receptors [1] (setting [4]), the Ki was 3.98e-08 M. Also, on hEP4 receptors [2], the IC50 was determined as 29 nM.
On to `C[C@H](NC(=O)C1CC(C)(C)CCN1Cc1ccc(C(F)(F)F)cc1)c1ccc(C(=O)O)cc1` (single isomer, unassigned) [Example E13], for which, at hEP4 receptors [1] (setting [5]), the Ki is 1.26e-08 M. The half-maximal inhibitory concentration (IC50) on hEP4 receptors [2] came out at 8 nM.
For the compound `O=C(O)c1ccc(C2(NC(=O)C3CC4CC4CN3Cc3ccc(C(F)(F)F)cc3)CC2)cc1` (single isomer, unassigned) [Example E23, 4-(1-(3-(4-(trifluoromethyl)benzyl)-3-azabicyclo[4.1.0]heptane-4-carboxamido)cyclopropyl)benzoic acid], at hEP4 receptors [1] (setting [4]), the Ki was 1e-08 M. Besides, on hEP4 receptors [2], the IC50 came to 11.5 nM.
On to `O=C(O)c1ccc(C2(NC(=O)[C@H]3CCCCN3Cc3ccc(C(F)(F)F)cc3)CC2)cc1` [Example E4, lithium (R)-4-(1-(1-(4-(trifluoromethyl)benzyl)piperidine-2-carboxamido)cyclopropyl)benzoate], for which the concentration for half-maximal inhibition (IC50) at hEP4 receptors [2] is 32 nM.
Regarding `C[C@H](NC(=O)[C@H]1CC(F)(F)CCN1Cc1ccc(C(F)(F)F)cc1)c1ccc(C(=O)O)cc1` [Example E16, 4-((S)-1-((R)-4,4-difluoro-1-(4-(trifluoromethyl)benzyl)piperidine-2-carboxamido)ethyl)benzoic acid], on hEP4 receptors [1] (setting [5]), the Ki is 2e-08 M. The IC50 on hEP4 receptors [2] was found to be 9 nM.
`O=C(O)c1ccc(C2(NC(=O)[C@H]3CCC4CC4N3Cc3ccc(C(F)(F)F)cc3)CC2)cc1` (stereo partly drawn) [Example E25, 4-(1-((3R)-2-(4-(trifluoromethyl)benzyl)-2-azabicyclo[4.1.0]heptane-3-carboxamido)cyclopropyl)benzoic acid]: the Ki on hEP4 receptors [1] (setting [4]) was 3.16e-09 M. For the same compound, on hEP4 receptors [2], the IC50 was found to be 43 nM.
For `C[C@H](NC(=O)[C@H]1CCC2CC2N1Cc1ccc(C(F)(F)F)cc1)c1ccc(C(=O)O)cc1` (stereo partly drawn) [Example E26, 4-((1S)-1-((3R)-2-(4-(trifluoromethyl)benzyl)-2-azabicyclo[4.1.0]heptane-3-carboxamido)ethyl)benzoic acid], in that order: 1.58e-09 M and 42 nM.
As to `C[C@H](NC(=O)[C@H]1CCCN1Cc1ccc(C(F)(F)F)cc1)c1ccc(C(=O)O)cc1` [Example E27, lithium 4-((S)-1-((R)-1-(4-(trifluoromethyl)benzyl)pyrrolidine-2-carboxamido)ethyl)benzoate], the IC50 on hEP4 receptors [2] stood at 50 nM.
On to `O=C(O)c1ccc(C2(NC(=O)[C@H]3C[C@H]4C[C@H]4N3Cc3cccc(C(F)(F)F)c3)CC2)cc1` [Example E29, 4-(1-((1R,3R,5R)-2-(3-(trifluoromethyl)benzyl)-2-azabicyclo[3.1.0]hexane-3-carboxamido)cyclopropyl)benzoic acid], for which the Ki on hEP4 receptors [1] (setting [4]) was 2.51e-09 M. The IC50 on hEP4 receptors [2] came out at 16 nM.
On hEP4 receptors [1] (setting [5]), `O=C(O)c1ccc(C2(NC(=O)[C@H]3C[C@H]4C[C@H]4N3Cc3ccc(C(F)(F)F)cc3)CC2)cc1` [Example E30, 4-(1-((1R,3R,5R)-2-(4-(trifluoromethyl)benzyl)-2-azabicyclo[3.1.0]hexane-3-carboxamido)cyclopropyl)benzoic acid] gave a Ki of 5.01e-09 M. The IC50 at hEP4 receptors [2] amounted to 21 nM.
